{"source": "patent US20110015154A1", "about": "“SUPPORTING ACETYLCHOLINE FUNCTION” (priority 2009, published 2011)", "origin": "cited, not measured here", "key": {"[1]": {"settings": "supplementation"}, "cells": {"system": "cells", "settings": "against hydrogen peroxide, beta-amyloid protein, glutamate, ischemia, staurosporine-induced cytotoxicity, and apoptosis"}, "[2]": {"system": "nuclear factor-kappa B (NFκB)", "settings": "after 14 days of administration"}, "M2 receptors": {"system": "M2 receptors", "settings": "adult rats"}, "[3]": {"settings": "in vivo"}, "M1 receptors": {"system": "M1 receptors", "settings": "adult rats"}}}
{"smiles": "CC(=O)O[C@H](CC(=O)[O-])C[N+](C)(C)C", "note": "[acetyl-L-carnitine]", "values": [{"measurement": "pain in patients with diabetic peripheral neuropathy", "setting": "[1]", "result": "reduce pain"}]}
{"smiles": "C/C=C1\\[C@H]2C=C(C)C[C@]1(N)c1ccc(=O)[nH]c1C2", "note": "[huperzine A, Huperzine A]", "values": [{"measurement": "cell protection", "setting": "cells", "result": "protects cells"}, {"measurement": "activation of glial cells in an ischemic event", "setting": "[2]", "result": "reduced"}, {"measurement": "nuclear translocation of transcription factor NFκB", "setting": "[2]", "result": "inhibited"}, {"measurement": "overexpression of pro-inflammatory mediators in an immune challenge", "setting": "[2]", "result": "decreased"}]}
{"smiles": "C[N+](C)(C)CCOP(=O)([O-])OC[C@H](O)CO", "note": "[α-GPC, Alpha-glycerylphosphorylcholine]", "values": [{"measurement": "effect on M2 receptors", "setting": "M2 receptors", "result": "no effect"}, {"measurement": "blood-brain barrier passage", "setting": "[3]", "result": "can cross the blood-brain barrier"}, {"measurement": "metabolism", "setting": "[3]", "result": "rapidly metabolized into choline and glycerophosphate"}, {"measurement": "effect on M1 receptors", "setting": "M1 receptors", "result": "countered the loss of M1 receptors"}]}
